# Experimental data as given in US10851109B2, “Compositions and methods of using the same for treatment of neurodegenerative and mitochondrial disease” (Mitokinin, Inc., priority 2014, dated 2020).
# Tests used:
# SH-SYSY cells = assay: Modulation of PINK1: Caspase-Glo caspase 3/7 cleavage after MG-132 in SH-SYSY cells; type: cell-based; details: then 25 uM MG-132 for 16 hours, % of kinetin's caspase cleavage values; for Run1 Compound (avg as % kinetin): Run1, compound 96 hours; for Run2 Compound (avg as % kinetin): Run2, compound 96 hours; for Run3 Compound (avg as % kinetin): Run3, compound 96 hours
# Method: We grew SH-SYSY cells in 1:1 mix of DMEM and F12 supplemented with 10% FBS and Pen/Strep (1×) antibiotics on 96 well plates (˜5,000 cells/well) at 37 degrees Celsius in 90 ul per well. We added 10 ul of 10× mix of the compounds identified below in a DMSO and medium mix to the cells. (min. 2 wells per compound per plate), allowed it to incubate for 96 hours at 37 degrees Celsius, then added 25 uM MG-132 for 16 hours (a proteasome inhibitor that triggers apoptosis; this toxicity is known to be opposed by PINK1). Following incubation with MG-132 we added 100 ul of Promega Caspase-Glo® reagent directly to each well to lyse cells and provide a luminescent Caspase 3/7 substrate peptide to quantify caspase cleavage activity. All of the values in Table 2 are presented as a % of kinetin's caspase cleavage values (kinentin was run as a positive control in parallel to the analogs of kinetin shown below).
# ND2 mutant flies = assay: Mechanical stress-induced (bang sensitive) paralysis test in ND2 mutant flies; type: in vivo, Drosophila; details: ND2 mutant flies treated throughout life with 10 μM of drug; tested after aging 15 days
# Description: Mutations affecting mitochondrial complex I, a multi-subunit assembly that couples electron transfer to proton pumping, are the most frequent cause of heritable mitochondrial diseases. Here, a Drosophila model of complex I deficiency caused by a homoplasmic mutation in the mitochondrial-encoded NADH dehydrogenase subunit 2 (ND2) gene is used. […] This ND2 mutant model was used in “bang sensitivity” behavioral analysis to show the effects of kinetin treatment.
# All Drosophila strains were maintained on standard cornmeal/molasses medium at 25° C. with a 12-hour lightdark cycle. The ND2de11 and ND2ins1 stock was obtained from the laboratory of Dr. Patrick O'Farrell (University of California, San Francisco) (Xu et al., 2008). The isogenic w1118 stock was obtained from the Bloomington Drosophila Stock Center at Indiana University. […]
# Drosophila strains with mutations affecting mitochondrial function often show an analogous seizure-like paralytic phenotype caused by mechanical-stress, termed “bang sensitivity” (Celotto et al., 2011; Fergestad et al., 2006; Ganetzky and Wu, 1982). […] Briefly, flies were vortexed for 10 seconds in inverted glass vials containing cotton stoppers, and the time required for each individual animal to right itself was recorded. […]
# Unless otherwise stated statistical significance tests were calculated using an unpaired two-tailed Student's t-test.
# [1] = tested on: mouse primary dopaminergic neuron culture; assay: Survival of TH positive dopaminergic neurons in primary mesencephalic culture injured by MPP+; type: cell-based; details: for decrease of TH positive neurons / TH neuron survival against MPP+, % of cell survival / dopaminergic (TH positive) neuron survival, percentage of control: MPP+ 4 μM for 48 h
# Description: Parkinson's disease (PD) is the second most common neurodegenerative disorder in the United States. The predominant motor symptoms of PD including slow movement, resting tremor, rigidity, and gait disturbance, are caused by the loss of dopaminergic neurons in the substantia nigra (SN). Although the aetiology of PD remains unknown, both genetic and environmental factors appear to play a role (Paisan-Ruiz et al., 2004; Vila & Przedborski, 2004). The neurotoxicant 1-methyl-4-phenyl-1, 2, 3, 6-tetrahydropyridine (MPTP) is a specific dopaminergic neuronal toxin. MPTP is converted to 1-methyl-4-phenyl pyridinium (MPP+) by astroglia and then causes specific dopaminergic neuronal death in the SN, thus leading to the clinical symptoms of PD in humans, primates and mice (Uhl et al., 1985). For this reason, MPTP-induced dopaminergic neurotoxicity in mice is widely used as a model for PD research. It has been largely reported that MPP+ causes neurodegeneration of dopaminergic neurones in vitro and provides a useful model of Parkinson's disease in vitro. […] This study investigated the neuroprotective effect of Mitokinin test compound (kinetin) in function on time of pre-incubation and concentration on mouse primary mesencephalic cultures injured by exposure to 1-methyl-4-phenylpyridinium (MPP+), a Parkinson' disease model in vitro. BDNF at 10 ng/ml will be used as a positive control in this study.
# Mouse dopaminergic neurons are cultured as described by Schinelli et al., 1988 and Viswanath et al., 2001. Briefly pregnant female mouse of 14 days gestation are killed by cervical dislocation (Mouse C57Bl/6; Janvier Labs) and the foetuses are removed from the uterus. The embryonic midbrains are removed and placed in ice-cold medium of Leibovitz (L15; PanBiotech; ref: PO4-27055, batch: 4290114) containing 2% of Penicillin-Streptomycin (PS; PanBiotech; ref: P06-07100; batch: 4810114) and 1% of bovine serum albumin (BSA; PanBiotech; Ref: P06-1391100, batch: K030913). Only the ventral portions of the mesencephalic flexure are used for the cell preparations as this is the region of the developing brain rich in dopaminergic neurons. The midbrains are dissociated by trypsinisation for 20 min at 37° C. (Trypsin EDTA IX; PanBiotech Ref: P10-023100; batch: 1681013). The reaction is stopped by the addition of Dulbecco's modified Eagle's medium (DMEM; PanBiotech Ref PO4-03600; batch: 9710913) containing DNAase I grade II (0.1 mg/ml; Panbiotech, ref: P60-37780100; batch: H130919) and 10% of foetal calf serum (FCS; Invitrogen; ref: 10270-098; batch: 41Q4120K). Cells are then mechanically dissociated by 3 passages through a 10 ml pipette. Cells are then centrifuged at 180×g for 10 min at 4° C. temperature on a layer of BSA (3.5%) in L15 medium. The supernatant is discarded and the cells of pellet is re-suspended in a defined culture medium consisting of Neurobasal (Invitrogen, ref: 21103; batch: 1556347) supplemented with B27 (2%; Invitrogen; ref: 17504; batch: 1446691), L-glutamine (2 mM; PanBiotech; ref: PO4-80100; batch: 6620314) and 2% of PS solution. Viable cells are counted in a Neubauer cytometer using the trypan blue exclusion test. The cells are seeded at a density of 70 000 cells/well in 96 well-plates (wells are pre-coated with poly-L-lysine (Greiner)) and are cultured at 37° C. in a humidified air (95%)/CO2 (5%) atmosphere. Half of the medium are changed every 2 days with fresh medium. In these conditions, after 5 days of culture, astrocytes are present in the culture and release growth factor allowing neurons differentiation. Five to six percents of the neuronal cell population are dopaminergic neurons.
# Briefly, on day 5 of culture, the medium was removed and fresh medium was added, without or with kinetin (Sigma ref 48130) at 100 μM, 50 μM, 25 μM and with and without BDNF 10 ng/ml for 2 days, 6 days or 10 days. […]
molecule,measurement,setting,value
"c1coc(CNc2nccc3[nH]ncc23)c1 [MTK- 62, N-(furan-2-ylmethyl)-1H-pyrazolo[4,3-c]pyridin-4-amine]",Run1 Compound (avg as % kinetin),SH-SYSY cells,88%
same,Run2 Compound (avg as % kinetin),SH-SYSY cells,132%
"c1coc(CNc2ncnc3[nH]ncc23)c1 [MTK- 51, N-(furan-2-ylmethyl)-1H-pyrazolo [3,4-d]pyrimidin-4-amine]",Run1 Compound (avg as % kinetin),SH-SYSY cells,80%
same,Run2 Compound (avg as % kinetin),SH-SYSY cells,92%
Nc1ncnc2nc[nH]c12 [Adenine],mean time necessary for recovery (to right itself) after 10 seconds vortexing,ND2 mutant flies,approximately 9 seconds
"c1coc(CC2CNc3ncnc4ncn2c34)c1 (stereo not shown) [MTK- 48, 7-(furan-2-ylmethyl)-8,9-dihydro-7H-imidazo[4,5,1-de]pteridine]",Run1 Compound (avg as % kinetin),SH-SYSY cells,92%
same,Run2 Compound (avg as % kinetin),SH-SYSY cells,122%
same,Run3 Compound (avg as % kinetin),SH-SYSY cells,95%
"c1coc(CNc2ccnc3[nH]ncc23)c1 [MTK- 59, N-(furan-2-ylmethyl)-1H-pyrazolo[3,4-b]pyridin-4-amine]",Run1 Compound (avg as % kinetin),SH-SYSY cells,72%
same,Run2 Compound (avg as % kinetin),SH-SYSY cells,108%
"Nc1nc(NCc2ccco2)c2nc[nH]c2n1 [MTK- 68, N-6-(furan-2-ylmethyl)-9H-purine-2,6-diamine]",Run1 Compound (avg as % kinetin),SH-SYSY cells,95%
"c1coc(CNc2ccnc3[nH]cnc23)c1 [MTK- 58, N-(furan-2-ylmethyl)-3H-imidazo[4,5-b]pyridin-7-amine]",Run1 Compound (avg as % kinetin),SH-SYSY cells,94%
same,Run2 Compound (avg as % kinetin),SH-SYSY cells,108%
"C[n+]1ccc(-c2ccccc2)cc1 [MPP^+, 1-methyl-4-phenylpyridinium]",decrease of TH positive neurons,[1]; 2 days pre-incubation series (FIG. 1),~50%
same,decrease of TH positive neurons,[1]; 6 days pre-incubation series (FIG. 2),~54%
same,decrease of TH positive neurons,[1]; 10 days pre-incubation series (FIG. 3),~47%
"c1coc(CNc2ncnc3nc[nH]c23)c1 [Kinetin, kinetin]",mean time necessary for recovery (to right itself) after 10 seconds vortexing,ND2 mutant flies,0.5 s
same,"TH neuron survival against MPP+, % of cell survival",[1]; Kinetin 25 μM pre-incubated 10 days,76%
same,"dopaminergic (TH positive) neuron survival, percentage of control",[1]; Kinetin 100 μM pre-incubated 2 days,70%
same,"dopaminergic (TH positive) neuron survival, percentage of control",[1]; Kinetin 100 μM pre-incubated 6 days,72%
same,toxicity on dopaminergic neurons on long incubation,[1]; Kinetin 100 μM pre-incubated 10 days,toxic
same,"TH neuron survival against MPP+, % of cell survival",[1]; Kinetin 5004 pre-incubated 10 days,84%
"Cc1nc2c(NCc3ccco3)ncnc2[nH]1 [MTK- 64, N-(furan-2-ylmethyl)-8-methyl-9H-purin-6-amine]",Run1 Compound (avg as % kinetin),SH-SYSY cells,79%
same,Run2 Compound (avg as % kinetin),SH-SYSY cells,120%
same,Run3 Compound (avg as % kinetin),SH-SYSY cells,93%
"BDNF: brain derived neurotrophic factor, used at 10 ng/ml as positive control (protein, UniProt P23560 19-247, looked up) Neurotrophic factor BDNF …: APMKEANIRGQGGLAYPGVRTHGTLESVNGPKAGSRGLTSLADTFEHVIEELLDEDQKVRPNEENNKDADLYTSRVMLSSQVPLEPPLLFLLEEYKNYLDAANMSMRVRRHSDPARRGELSVCDSISEWVTAADKKTAVDMSGGTVTVLEKVPVSKGQLKQYFYETKCNPMGYTKEGCRGIDKRHWNSQCRTTQSYVRALTMDSKKRIGWRFIRIDTSCVCTLTIKRGR","dopaminergic (TH positive) neuron survival, percentage of control","[1]; BDNF 10 ng/mL, 2 days pre-incubation series",87%
same,"dopaminergic (TH positive) neuron survival, percentage of control","[1]; BDNF 10 ng/mL, 6 days pre-incubation series",84%
same,"dopaminergic (TH positive) neuron survival, percentage of control","[1]; BDNF 10 ng/mL, 10 days pre-incubation series",91%
